Test system: L1210 leukemia (ip)
Assay: Antileukemic screen, L1210 tumour ip, drug ip qd 1-5
Format: in vivo, mice (C3H/DBA2 F1 hybrids)
Set-up: LD10 / D40 (drug dose necessary to provide 40% ILS): unit not given here
Settings: L1210-ip, qd 1-5; Table III
From the text: (§1) In initial screening a standard drug administration schedule has been employed (ip, qd 1-5) and mice (C3 H/DBA2 F1 hybrids) bred in the laboratory, receive a standard tumor inoculum of 10^5 L1210 cells ip on day 0. After range finding experiments, an LD10 dose has then been derived employing doses separated by 0.05 log.dose units, an acceptable soluble drug formulation (B. F. Cain, R. N. Seelye and G. J. Atwell, J. Med. Chem., 17, 922-930 (1974)) and groups of six tumored mice at each dose level. Deaths occuring before day 8 have been taken as resulting from drug toxicity. From the linear regression relating percent probit-mortality and the logarithms of the corresponding doses, an LD10 value has been derived. Profiles of antileukemic activity have been obtained employing doses separated by 0.09 log.dose intervals. Significant percentage increases in life span of leukemic animals, obtained at and below the LD10 dose, have been linearly correlated with the logarithms of the corresponding doses. The increase in life span (ILS) specified by the life extension-log.dose regression line at the measured LD10 provides a representative measure of antileukemic effectiveness at a standard host load in toxicity (W. A. Denny and B. F. Cain, J. Med. Chem., 21, 430-437 (1978)). For congener selection ILS has been employed as a measure of factor (1) above and LD10 for factor (2). Desirable drug pharmacokinetic properties (factor (3)) have been screened for by employing standard ip drug administration and implanting tumor more remotely; either subcutaneously (sc) or intracerabrally (ic) (B. F. Cain and G. J. Atwell Europ J. Cancer, 10, 539 549 (1974), B. F. Cain and G. J. Atwell, J. Med. Chem., 19 1409-1416 (1976)).
(§2) ILS and LD10=as defined above.
(§3) D40=the drug dose necessary to provide 40% ILS in standard L1210 assays.

Structure (SMILES) | ILS Observed
COc1cc(NS(C)(=O)=O)ccc1Nc1c2ccc(C)cc2nc2c(C(=O)NCC(N)=O)cccc12 [Compound 2] | 200%
COc1cc(NS(C)(=O)=O)ccc1Nc1c2ccc(Cl)cc2nc2c(C(=O)NCC(N)=O)cccc12 [Compound 3] | 120%
CNC(=O)c1ccc2c(Nc3ccc(NS(C)(=O)=O)cc3OC)c3cccc(C)c3nc2c1 [Compound 4] | 150%

Same assay, conditions: Tumour L1210-ip, Strain F1, Schedule qd 1-5, at LD10; Table II

Structure (SMILES) | ILS (increase in life span at the LD10)
COc1cc(NS(C)(=O)=O)ccc1Nc1c2ccc(C)cc2nc2c(C(=O)NCC(N)=O)cccc12 [Compound 2] | 200%
COc1cc(NS(C)(=O)=O)ccc1Nc1c2ccc(Cl)cc2nc2c(C(=O)NCC(N)=O)cccc12 [Compound 3] | 120%
CNC(=O)c1ccc2c(Nc3ccc(NS(C)(=O)=O)cc3OC)c3cccc(C)c3nc2c1 [Compound 4] | 150%

Same assay, conditions: Tumour L1210-ip, Strain F1, Schedule qd 1-5, drug ip; Table II

Structure (SMILES) | LD10
COc1cc(NS(C)(=O)=O)ccc1Nc1c2ccc(C)cc2nc2c(C(=O)NCC(N)=O)cccc12 [Compound 2] | 120
COc1cc(NS(C)(=O)=O)ccc1Nc1c2ccc(Cl)cc2nc2c(C(=O)NCC(N)=O)cccc12 [Compound 3] | 300
CNC(=O)c1ccc2c(Nc3ccc(NS(C)(=O)=O)cc3OC)c3cccc(C)c3nc2c1 [Compound 4] | 20

Same assay, conditions: Tumour L1210-ip, Strain F1, Schedule qd 1-5; Table II

Structure (SMILES) | D40 (drug dose necessary to provide 40% ILS)
COc1cc(NS(C)(=O)=O)ccc1Nc1c2ccc(C)cc2nc2c(C(=O)NCC(N)=O)cccc12 [Compound 2] | 10
COc1cc(NS(C)(=O)=O)ccc1Nc1c2ccc(Cl)cc2nc2c(C(=O)NCC(N)=O)cccc12 [Compound 3] | 25
CNC(=O)c1ccc2c(Nc3ccc(NS(C)(=O)=O)cc3OC)c3cccc(C)c3nc2c1 [Compound 4] | 1

Same assay, conditions: in words

Structure (SMILES) | Antitumour activity in leukemic animals | Dose potency
COc1cc(NS(C)(=O)=O)ccc1Nc1c2ccc(C)cc2nc2c(C(=O)NCC(N)=O)cccc12 [Compound 2] | unusually high antitumour activity in leukemic animals | 
CNC(=O)c1ccc2c(Nc3ccc(NS(C)(=O)=O)cc3OC)c3cccc(C)c3nc2c1 [Compound 4] |  | good dose potency

Same assay, conditions: in words; listed as 5-methyl-3-methylcarboxamido

Structure (SMILES) | Antitumour activity in leukemic animals
CNC(=O)c1ccc2c(Nc3ccc(NS(C)(=O)=O)cc3OC)c3cccc(C)c3nc2c1 [Compound 4] | high experimental antitumor activity

Test system: Ames bacterial tester strains TA98, TA100, TA1537
Assay: not given
Format: cell-based
Settings: not given
From the text: As clinical cancer chemotherapy improves, and patients live symptom free for longer intervals, it is obviously important that the agents employed are not carcinogenic and capable of disease re-induction.

Structure (SMILES) | Direct mutagenicity
CNC(=O)c1ccc2c(Nc3ccc(NS(C)(=O)=O)cc3OC)c3cccc(C)c3nc2c1 [Compound 4] | lack significant mutagenic activity

Test system: poly.dAT
Assay: Drug-DNA binding, poly.dAT (AT)
Settings: not given
From the text: (§4) CT, AT and GC=are relative, inverse measures of compound--DNA binding for calf thymus DNA (CT); poly.dAT (AT) and poly. dGC (GC). (B. C. Baguley and E. M. Falkenhaugh, Nucleic Acids Res., 5, 161-171 (1978), B. F. Cain, B. C. Baguley and W. A. Denny, J. Med. Chem., 21, 658-668 (1978)).

Structure (SMILES) | AT (relative, inverse measure of compound-DNA binding)
COc1cc(NS(C)(=O)=O)ccc1Nc1c2ccc(C)cc2nc2c(C(=O)NCC(N)=O)cccc12 [Compound 2] | 6.53
CNC(=O)c1ccc2c(Nc3ccc(NS(C)(=O)=O)cc3OC)c3cccc(C)c3nc2c1 [Compound 4] | 3.2

Test system: not listed separately
Assay: Lipophilic-hydrophilic balance by reversed phase chromatography
Format: physicochemical
Settings: linearly related to 1-octanol/H2O partition coefficients
From the text: Rm =a measure of the compound's lipophilichydrophilic balance from reversed phase chromatography. Rm is linearly related to partition coefficients obtained in the 1-octanol/H2 O system.

Structure (SMILES) | Rm (reversed-phase chromatographic lipophilicity)
COc1cc(NS(C)(=O)=O)ccc1Nc1c2ccc(C)cc2nc2c(C(=O)NCC(N)=O)cccc12 [Compound 2] | -0.32
COc1cc(NS(C)(=O)=O)ccc1Nc1c2ccc(Cl)cc2nc2c(C(=O)NCC(N)=O)cccc12 [Compound 3] | -0.23
CNC(=O)c1ccc2c(Nc3ccc(NS(C)(=O)=O)cc3OC)c3cccc(C)c3nc2c1 [Compound 4] | -0.17

Test system: TA1537 strain of Salmonella typhimurium
Assay: Mutagenicity assay in TA1537 strain
Settings: Salmonella typhimurium TA1537
From the text: The quantitative measures of mutagenicity employed in the present studies are those detailed in L. R. Ferguson and W. A. Denny, J. Med. Chem., 22, 251-255 (1979) of early QSAR developed in this area.
D50 and M50=quantitative measures derived from mutagenicity assays in TA1537 strain of Salmonella typhimurium, defined in L. R. Ferguson and W. A. Denny, J. Med. Chem., 22, 251-255 (1979). (The values of M50 are percentage mutation frequencies at the D50 (×10^4).)

Structure (SMILES) | Mutagenicity D50
COc1cc(NS(C)(=O)=O)ccc1Nc1c2ccc(C)cc2nc2c(C(=O)NCC(N)=O)cccc12 [Compound 2] | 27.6
COc1cc(NS(C)(=O)=O)ccc1Nc1c2ccc(Cl)cc2nc2c(C(=O)NCC(N)=O)cccc12 [Compound 3] | 12.4
CNC(=O)c1ccc2c(Nc3ccc(NS(C)(=O)=O)cc3OC)c3cccc(C)c3nc2c1 [Compound 4] | 43.8

Same assay, conditions: Salmonella typhimurium TA1537, at the D50

Structure (SMILES) | Mutagenicity M50 (percentage mutation frequency at the D50 (×10^4))
COc1cc(NS(C)(=O)=O)ccc1Nc1c2ccc(C)cc2nc2c(C(=O)NCC(N)=O)cccc12 [Compound 2] | 0 % (×10^4)
COc1cc(NS(C)(=O)=O)ccc1Nc1c2ccc(Cl)cc2nc2c(C(=O)NCC(N)=O)cccc12 [Compound 3] | 0 % (×10^4)
CNC(=O)c1ccc2c(Nc3ccc(NS(C)(=O)=O)cc3OC)c3cccc(C)c3nc2c1 [Compound 4] | 0.16 % (×10^4)

Test system: not listed separately
Assay: Basic pKa measured spectrophotometrically
Format: physicochemical
Settings: 20% aqueous dimethylformamide, spectrophotometric; read-out: pK (basic pKa)

Structure (SMILES) | pKa
COc1cc(NS(C)(=O)=O)ccc1Nc1c2ccc(C)cc2nc2c(C(=O)NCC(N)=O)cccc12 [Compound 2] | 6.58
COc1cc(NS(C)(=O)=O)ccc1Nc1c2ccc(Cl)cc2nc2c(C(=O)NCC(N)=O)cccc12 [Compound 3] | 5.71
CNC(=O)c1ccc2c(Nc3ccc(NS(C)(=O)=O)cc3OC)c3cccc(C)c3nc2c1 [Compound 4] | 6.64

Test system: calf thymus DNA
Assay: Drug-DNA binding, calf thymus DNA (CT)
Settings: not given
From the text: as §4

Structure (SMILES) | CT (relative, inverse measure of compound-DNA binding)
COc1cc(NS(C)(=O)=O)ccc1Nc1c2ccc(C)cc2nc2c(C(=O)NCC(N)=O)cccc12 [Compound 2] | 6.53

Test system: L1210 leukemia (sc)
Assay: Antileukemic screen, L1210 tumour sc, drug ip qd 1-5
Format: in vivo, mice (C3H/DBA2 F1 hybrids)
Set-up: LD10 / D40 (drug dose necessary to provide 40% ILS): unit not given here
Settings: Strain F1, Schedule qd 1-5, Table II
From the text: as §1, §2, §3

Structure (SMILES) | D40 (drug dose necessary to provide 40% ILS)
COc1cc(NS(C)(=O)=O)ccc1Nc1c2ccc(C)cc2nc2c(C(=O)NCC(N)=O)cccc12 [Compound 2] | 60
COc1cc(NS(C)(=O)=O)ccc1Nc1c2ccc(Cl)cc2nc2c(C(=O)NCC(N)=O)cccc12 [Compound 3] | 175
CNC(=O)c1ccc2c(Nc3ccc(NS(C)(=O)=O)cc3OC)c3cccc(C)c3nc2c1 [Compound 4] | 15

Same assay, conditions: Strain F1, Schedule qd 1-5, at LD10, Table II

Structure (SMILES) | ILS (increase in life span at the LD10)
COc1cc(NS(C)(=O)=O)ccc1Nc1c2ccc(C)cc2nc2c(C(=O)NCC(N)=O)cccc12 [Compound 2] | 50%
COc1cc(NS(C)(=O)=O)ccc1Nc1c2ccc(Cl)cc2nc2c(C(=O)NCC(N)=O)cccc12 [Compound 3] | 65%
CNC(=O)c1ccc2c(Nc3ccc(NS(C)(=O)=O)cc3OC)c3cccc(C)c3nc2c1 [Compound 4] | 100%

Same assay, conditions: Strain F1, Schedule qd 1-5, drug ip, Table II

Structure (SMILES) | LD10
COc1cc(NS(C)(=O)=O)ccc1Nc1c2ccc(C)cc2nc2c(C(=O)NCC(N)=O)cccc12 [Compound 2] | 120
COc1cc(NS(C)(=O)=O)ccc1Nc1c2ccc(Cl)cc2nc2c(C(=O)NCC(N)=O)cccc12 [Compound 3] | 330
CNC(=O)c1ccc2c(Nc3ccc(NS(C)(=O)=O)cc3OC)c3cccc(C)c3nc2c1 [Compound 4] | 25

Test system: poly. dGC
Assay: Drug-DNA binding, poly.dGC (GC)
Settings: not given
From the text: as §4

Structure (SMILES) | GC (relative, inverse measure of compound-DNA binding)
COc1cc(NS(C)(=O)=O)ccc1Nc1c2ccc(C)cc2nc2c(C(=O)NCC(N)=O)cccc12 [Compound 2] | 1.84
COc1cc(NS(C)(=O)=O)ccc1Nc1c2ccc(Cl)cc2nc2c(C(=O)NCC(N)=O)cccc12 [Compound 3] | 4.91

Test system: L1210 leukemia (ic)
Assay: Intracerebrally implanted L1210
Format: in vivo, mice
Settings: in words
From the text: as §1

Structure (SMILES) | Inhibition of intra-cerebrally implanted L1210
CNC(=O)c1ccc2c(Nc3ccc(NS(C)(=O)=O)cc3OC)c3cccc(C)c3nc2c1 [Compound 4] | inhibit intra-cerebrally implanted L1210

Test system: not listed separately
Assay: Water solubility / ease of formulation
Format: physicochemical
Settings: in words

Structure (SMILES) | Ease of formulation
CNC(=O)c1ccc2c(Nc3ccc(NS(C)(=O)=O)cc3OC)c3cccc(C)c3nc2c1 [Compound 4] | easily formulable
